In US20120122212A1, “TGF-BETA PATHWAY INHIBITORS FOR ENHANCEMENT OF CELLULAR REPROGRAMMING OF HUMAN CELLS” (priority 2009, published 2012):
Where two headings read alike, the source gives them in different places.

How the values were obtained:
Klf4 = Klf4 gene expression (Taqman, normalized to GAPDH) in neonatal human dermal fibroblasts; format: cell-based; conditions: after 6 days
Experimental: (§1) Neonatal human dermal fibroblasts (fibroblast cell line NHDF-3955-Neo from Lonza) are cultured under standard cell culture conditions using hFib media (DMEM, 20% Earl's 199 media, 10% FBS, Glutamax, beta-mercaptoethanol (bME)). Approximately 12,000 cells per well are plated on a 12-well plate. 24 hrs after plating, cells are daily fed with media containing 4, 10 or 20 μM DIM (Sigma) or 1% DMSO. After 6 days, cells are collected and RNA is extracted using a Qiagen RNeasy kit. Gene expression is analyzed using specific Taqman primer-probe sets for Klf4, p21 and GAPDH on an ABI 7900HT. Gene expression of cells previously infected with retroviruses encoding Sox2, Oct4, Klf4, and c-Myc (“KSOM”) is also analyzed and is used for positive control purposes. The expression of Klf4 and p21 is normalized to the expression of housekeeping gene GAPDH.

p21 = p21 gene expression (Taqman, normalized to GAPDH) in neonatal human dermal fibroblasts; format: cell-based; conditions: after 6 days
Experimental: as §1

Oct4 = Oct4 gene expression (Taqman, normalized to GAPDH) in neonatal human dermal fibroblasts; format: cell-based; conditions: for increase in Oct4 compared to cells that receive no agent treatment / increase in relative expression of Oct4 compared to cells treated with DMSO: after 6 days, hFib media
Experimental: (§2) Neonatal human dermal fibroblasts (fibroblast cell line NHDF-3955-Neo from Lonza) are cultured under standard cell culture conditions using hFib media (DMEM, 20% Earl's 199 media, 10% FBS, Glutamax, beta-mercaptoethanol (bME)). Approximately 12,000 cells per well are plated on a 12-well plate. 24 hrs after plating, cells are daily fed with media containing 4, 10, 20, 50 or 100 μM GPI-1046 (ACC Corporation) or 1% DMSO. After 6 days, cells are collected and RNA is extracted using a Qiagen RNeasy kit. Gene expression is analyzed using specific Taqman primer-probe sets for Sox2, Oct4, and GAPDH on an ABI 7900HT. Gene expression of cells previously infected with retroviruses encoding Sox2, Oct4, Klf4, and c-Myc (“KSOM”) is also analyzed and is used for positive control purposes. The expression of Sox2 and Oct4 is normalized to the expression of housekeeping gene GAPDH. […] As also indicated in FIG. 1, cells that are treated with 50 μM or 100 μM GPI-1046 express about 5.2-fold and 5.7-fold, respectively, increases in Oct4 when compared to cells that receive no agent treatment and approximately a 3.5- and 3.8-fold increase, respectively, in relative expression of Oct4 when compared to cells that are treated with DMSO.
(§3) Neonatal human dermal fibroblasts (fibroblast cell line NHDF-3955-Neo from Lonza) are cultured under standard cell culture conditions using hFib media (DMEM, 20% Earl's 199 media, 10% FBS, Glutamax, beta-mercaptoethanol (bME)). Approximately 6,000 cells per well are plated on a 24-well plate. 48 hrs after plating, cells are daily fed with media containing 1 or 100 μM GPI-1046 with or without 0.5 μM Decitabine. On day 7 of treatment, cells are collected and RNA is extracted using a Qiagen RNeasy kit. Gene expression is analyzed using specific Taqman primer-probe sets for Sox2, Oct4 and GAPDH on an ABI 7900HT. The expression of Sox2 and Oct4 is normalized to the expression of housekeeping gene GAPDH.
Neonatal human dermal fibroblasts (fibroblast cell line NHDF-3955-Neo from Lonza) are cultured under standard cell culture conditions using hES medium, as described herein. Cells are treated with 0 μM, 2 μM, 10 μM, 50 μM, or 100 μM GPI-1046. On day 5 or day 8 after treatment, cells are collected and RNA is extracted using a Qiagen RNeasy kit. Gene expression is analyzed using specific Taqman primer-probe sets for Sox2, Oct4 and GAPDH on an ABI 7900HT. Gene expression of cells previously infected with retroviruses encoding Sox2, Oct4, Klf4, and c-Myc (“KSOM”) is also analyzed and is used for positive control purposes. The expression of Sox2 and Oct4 is normalized to the expression of housekeeping gene GAPDH. […] The morphology of cells infected with viruses encoding KSOM is depicted in FIG. 8.

Sox2 = Sox2 gene expression (Taqman, normalized to GAPDH) in neonatal human dermal fibroblasts; format: cell-based; conditions: for increase in Sox2 expression compared to cells that receive no drug treatment: daily feeding
Experimental: as §2
Neonatal human dermal fibroblasts (fibroblast cell line NHDF-3955-Neo from Lonza) are cultured under standard cell culture conditions using hFib media (DMEM, 20% Earl's 199 media, 10% FBS, Glutamax, beta-mercaptoethanol (bME)). Approximately 12,000 cells per well are plated on a 12-well plate. 24 hrs after plating, cells are daily fed with media containing 2, 5, 25 or 50 μM 616 453 (Calbiochem) or 1% DMSO. After 6 days, cells are collected and RNA is extracted using a Qiagen RNeasy kit. Gene expression is analyzed using specific Taqman primer-probe sets for Sox2 and GAPDH on an ABI 7900HT. Gene expression of cells previously infected with retroviruses encoding Sox2, Oct4, Klf4, and c-Myc (“KSOM”) is also analyzed and is used for positive control purposes. The expression of Sox2 is normalized to the expression of housekeeping gene GAPDH.
as §3
as §3, with “LY 364947 (Tocris); for 50 μM 616 453 (Calbiochem); 1” for “GPI-1046 with”, “100 μM of A-83-01 (Tocris) or 1 or 100 μM SB 431542 (Tocris). Each treatment was performed in the presence or absence of” for “without”, “using” for “using a”, “Sox2” for “Sox2, Oct4”, “Sox2” for “Sox2 and Oct4”, “GAPDH. […] The morphology of the cells after treatment is depicted in FIG. 5.” for “GAPDH.”
Neonatal human dermal fibroblasts (fibroblast cell line NHDF-3955-Neo from Lonza) are cultured under standard cell culture conditions using hES medium, as described herein. Cells are treated with 0 μM, 2 μM, 10 μM, 50 μM, or 100 μM GPI-1046. […]

human BJ-5Tα fibroblasts = conditions: Day 8
Experimental: In the case of compound 616452, cells KSO and KSOM-infected BJ-5Tα fibroblasts were fixed by 4% paraformaldehyde at Day 8, and then incubated with 50 μl 1-Step NBT/BCIP for 20 minutes for AP staining AP staining-positive colonies were counted (see FIGS. 15-16).

human BJ fibroblasts = conditions: BJ fibroblasts (lack TERT), Day 8, reduced sensitivity compared to BJ-5Tα
Excerpt: In order to determine the effect of TGFβR inhibitor compounds on reprogramming we combined low multiplicity of infection (MOI) of retroviruses for three induction factor (Klf4, Sox2, and Oct ¾ or “KSO”) and four induction factor (Klf4, Sox2, Oct3/4, c-Myc or “KSOM”) reprogramming with various TGFβR inhibitors in human BJ-5Tα fibroblasts or BJ fibroblasts. […] By utilizing a low MOI infection protocol, we increased the sensitivity of the assay to detect the ability of various TGFβR inhibitor compounds to enhance the efficiency of reprogramming by three or four induction factor combinations.
Adherent BJ or BJ-5Tα (TERT-immortalized) fibroblast cells were infected “in bulk” with retroviruses for expression of the three induction factors (also referred to as “reprogramming factors”) KLF4, OCT3/4 and SOX2 (“KSO”), or the cells were infected with retroviruses for expression of KLF4, OCT4, SOX2 and c-MYC (“KSOM”), in each case at a multiplicity of infection (MOI) of 1, and transferred into 96-well plates in a serum-free human embryonic stem cell (hES) medium. […] AP activity was determined quantitatively using a chemiluminescent 1,2-dioxetane-phosphate substrate, which upon dephosphorylation by AP forms a metastable phenolate anion intermediate that decomposes emitting light quantified by a microplate luminometer.

mouse fibroblasts = conditions: cited from earlier work
[1] = 100 μM with 0.5 μM Decitabine, day 7 of treatment
[2] = 100 μM, no Decitabine, day 7 of treatment

c1ccc2c(Cc3c[nH]c4ccccc34)c[nH]c2c1 [DIM]
increase in Klf4 expression relative to cells treated with no agent (Klf4; 4 μM): approximately 2 fold
increase in Klf4 expression compared to cells treated with no agent (Klf4; 10 μM): ~3.2 fold
increase in p21 expression relative to cells treated with no agent (p21; 4 μM): approximately 2 fold
increase in p21 expression compared to cells treated with no agent (p21; 10 μM): approximately 2 fold

CCC(C)(C)C(=O)C(=O)N1CCCC1C(=O)OCCCc1cccnc1 (centres unmarked) [GPI-1046]
increase in Oct4 compared to cells that receive no agent treatment (Oct4; 50 μM): about 5.2 fold
increase in relative expression of Oct4 compared to cells treated with DMSO (Oct4; 50 μM): ~3.5 fold
Oct4 expression compared to control cells (Oct4; [1]): slightly increased expression
relative Oct4 expression compared to cells that do not receive drug treatment (Oct4; 100 μM, Day 8, hES medium): increases in relative Sox2 and Oct4 expression
increase in Oct4 compared to cells that receive no agent treatment (Oct4; 100 μM): ~5.7 fold
increase in relative expression of Oct4 compared to cells treated with DMSO (Oct4; 100 μM): ~3.8 fold
increase in Oct4 expression compared to control cells (Oct4; [2]): ~4.3 fold
levels of Sox2, Oct3/4 or both versus cells treated with no agent (Sox2; 4 μM, 10 μM, or 20 μM, after 6 days, hFib media): higher levels of Sox2, Oct3/4 or both
increase of relative Sox2 expression compared to cells treated with DMSO (Sox2; 50 μM or 100 μM, after 6 days, hFib media): ~1.6 fold
increase in Sox2 expression compared to cells that receive no drug treatment (Sox2; 50 μM, after 6 days, hFib media): 4.4 fold
Sox2 expression compared to control cells (Sox2; [1]): slightly increased expression
relative Sox2 expression compared to control cells (Sox2; 100 μM, Day 5, hES medium): an increase in relative Sox2 expression
relative Sox2 expression compared to cells that do not receive drug treatment (Sox2; 100 μM, Day 8, hES medium): increases in relative Sox2 and Oct4 expression
increase in Sox2 expression compared to cells that receive no drug treatment (Sox2; 100 μM, after 6 days, hFib media): 4.5 fold
increase in Sox2 expression compared to control cells (Sox2; [2]): ~3.5 fold

Cc1cccc(-c2nn(C(=S)Nc3ccccc3)cc2-c2ccnc3ccccc23)n1 [A-83-01]
relative expression of Sox2 compared to control cells (Sox2; 1 or 100 μM, absence of Decitabine, day 7 of treatment): increased relative expression of Sox2
relative Sox2 expression compared to control cells (Sox2; 1 or 100 μM, presence of 0.5 μM Decitabine, day 7 of treatment): a slight increase of relative Sox2 expression

NC(=O)c1ccc(-c2nc(-c3ccc4c(c3)OCO4)c(-c3ccccn3)[nH]2)cc1 [SB 431542]
relative Sox2 expression (Sox2; 100 μM plus 0.5 μM Decitabine, day 7 of treatment): an increase in relative Sox2 expression

Cc1cccc(-c2n[nH]cc2-c2ccc3ncccc3n2)n1 [compound 616452]
increase in number of AP positive colonies (human BJ-5Tα fibroblasts; KSO-infected BJ-5Tα fibroblasts): greater than ten fold
increase in number of AP positive colonies (human BJ-5Tα fibroblasts; KSOM-infected BJ-5Tα fibroblasts): approximately five fold
alkaline phosphatase activity (human BJ fibroblasts; four factor (KSOM) reprogramming): increased alkaline phosphatase activity
alkaline phosphatase activity (human BJ fibroblasts; three factor (KSO) reprogramming): increased alkaline phosphatase activity

Cc1cccc(-c2nc(C(C)(C)C)[nH]c2-c2ccc3c(c2)OCO3)n1 [616 453]
relative Sox2 expression (Sox2; 1 μM, day 7 of treatment): an increase in relative Sox2 expression
relative Sox2 expression (Sox2; 50 μM plus 0.5 μM Decitabine, day 7 of treatment): an increase in relative Sox2 expression
Sox2 expression compared to cells that receive no treatment (Sox2; 2, 5, 25 or 50 μM, after 6 days): an increase in Sox2 expression
relative Sox2 expression compared to cells treated with DMSO (Sox2; 2, 5 and 50 μM, after 6 days): an increase in relative Sox2 expression

B1: Wnt3a: Wnt cell signaling molecule (protein, UniProt P56704 19-352, looked up)
Protein Wnt-3a: SYPIWWSLAVGPQYSSLGSQPILCASIPGLVPKQLRFCRNYVEIMPSVAEGIKIGIQECQHQFRGRRWNCTTVHDSLAIFGPVLDKATRESAFVHAIASAGVAFAVTRSCAEGTAAICGCSSRHQGSPGKGWKWGGCSEDIEFGGMVSREFADARENRPDARSAMNRHNNEAGRQAIASHMHLKCKCHGLSGSCEVKTCWWSQPDFRAIGDFLKDKYDSASEMVVEKHRESRGWVETLRPRYTYFKVPTERDLVYYEASPNFCEPNPETGSFGTRDRTCNVSSHGIDGCDLLCCGRGHNARAERRREKCRCVFHWCCYVSCQECTRVYDVHTCK
enhancement of reprogramming efficiency (mouse fibroblasts; mouse fibroblasts in the presence of factors Oct4, Sox2 and Klf4): about 20 fold
enhancement of reprogramming efficiency (mouse fibroblasts; mouse fibroblasts with Oct4, Sox2, Klf4 and c-Myc): 1.2 fold
